Results as given in the supplement of paper PMC10307832.

Assays:
Test in all cases: relative viability (nuclei count vs DMSO), 5 days (fraction); higher = more cells survive
Masitinib + Phenformin = compound: Cc1ccc(NC(=O)c2ccc(CN3CCN(C)CC3)cc2)cc1Nc1nc(-c2cccnc2)cs1 [Masitinib] + N=C(N)NC(=N)NCCc1ccccc1 [Phenformin] (partner 250 µM)
In short: (§1)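 Lung cancer cell lines in 1536-well plates were dosed by pin tool the day after seeding, either with one drug alone or with a fixed anchor-drug dose plus five library-drug doses (not always all listed) in √10 steps. After 5 days, cells were fixed and their nuclei stained in one step (final 0.05% Triton X-100, 1% formaldehyde, 1 ug/ml Hoechst), then counted on 4× images. Relative viability is the nuclei count in treated wells divided by that in vehicle wells. Values are medians of duplicate plates.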

[1] = compound: CC1=CC(=CC=C1)NC2=NC(=CS2)C3=CC=NC=C3 + CS(=O)(=O)N1CCN(Cc2cc3nc(-c4cccc5[nH]ncc45)nc(N4CCOCC4)c3s2)CC1 [Pictilisib] (partner 1 µM)
In short: as §1

[2] = compound: CC1=CC(=CC=C1)NC2=NC(=CS2)C3=CC=NC=C3 + NC(=O)Nc1cc(-c2cccc(F)c2)sc1C(=O)N[C@H]1CCCNC1 [AZD7762] (partner 0.2 µM)
In short: as §1

[3] = compound: CC1=CC(=CC=C1)NC2=NC(=CS2)C3=CC=NC=C3 + CC(=O)Nc1cccc(-n2c(=O)n(C3CC3)c(=O)c3c(Nc4ccc(I)cc4F)n(C)c(=O)c(C)c32)c1 [Trametinib] (partner 0.02 µM)
In short: as §1

Cell Line	relative viability (Masitinib + Phenformin; first compound 0.01 µM)	relative viability (Masitinib + Phenformin; first compound 0.03162 µM)	relative viability (Masitinib + Phenformin; first compound 0.1 µM)	relative viability (Masitinib + Phenformin; first compound 0.3162 µM)	relative viability (Masitinib + Phenformin; first compound 1 µM)	relative viability ([1]; first compound 0.08 µM)	relative viability ([1]; first compound 0.253 µM)	relative viability ([1]; first compound 0.8 µM)	relative viability ([1]; first compound 2.53 µM)	relative viability ([1]; first compound 8 µM)	relative viability ([2]; first compound 0.08 µM)	relative viability ([2]; first compound 0.253 µM)	relative viability ([2]; first compound 0.8 µM)	relative viability ([2]; first compound 2.53 µM)	relative viability ([2]; first compound 8 µM)	relative viability ([3]; first compound 0.08 µM)	relative viability ([3]; first compound 0.253 µM)	relative viability ([3]; first compound 0.8 µM)	relative viability ([3]; first compound 2.53 µM)	relative viability ([3]; first compound 8 µM)
HCC-15	0.448	0.453	0.497	0.459	0.405	0.644	0.665	0.684	0.692	0.701	1.11	1.19	1.03	1.03	1.02	0.369	0.383	0.373	0.348	0.343
LCLC-103H	0.339	0.348	0.306	0.344	0.293	0.402	0.54	0.551	0.572	0.546	0.73	0.755	0.725	0.74	0.651	0.629	0.593	0.586	0.579	0.658
NCI-H460	0.482	0.586	0.508	0.457	0.503	0.311	0.257	0.337	0.354	0.336	0.555	0.529	0.625	0.622	0.497	0.0961	0.0855	0.0743	0.0913	0.111
EPLC-272H	0.317	0.212	0.285	0.305	0.257	0.265	–	0.292	–	0.344	0.201	0.153	0.445	–	0.215	0.308	0.271	0.296	–	0.277
